Consider one compound from ChEMBL document CHEMBL1649471, “Nonhuman primates are protected from smallpox virus or monkeypox virus challenges by the antiviral drug ST-246” (2009).

SMILES strings stand for the structures. Activity calls are given as the source filed them. No cut-off for these calls is given here.

Assay [1] concerns Variola virus. As to the kind of experiment: Antiviral activity against 1X10'8 PFU Variola virus Harper infected in cynomolgus monkey assessed as decrease in blood viral load at 300 mg/kg/day, po administered immediately post infection followed by 5 ml/kg of 30% suspension of hydrated homogenized monkey biscuit measured up to 28 days. Type of assay: functional, organism-based.

In assay [2] the test system is Variola virus. As to the kind of experiment: Antiviral activity against 1X10'8 PFU Variola virus Harper infected in cynomolgus monkey assessed as log decrease in blood viral load at 300 mg/kg/day, po administered immediately post infection followed by 5 ml/kg of 30% suspension of hydrated homogenized monkey biscuit measured between day 5 to 8. Type of assay: functional.

Assay [3] concerns Variola virus. Description: Antiviral activity against 1X10'8 PFU Variola virus Harper infected in cynomolgus monkey assessed as mean corpuscular hemoglobin concentration in animal at 300 mg/kg/day, po administered immediately after infection followed by 5 ml/kg of 30% suspension of hydrated homogenized monkey biscuit measured 11 days post infection. Type of assay: functional.

The test system of assay [4] is Variola virus. As to the kind of experiment: Antiviral activity against 1X10'8 PFU Variola virus Harper infected in cynomolgus monkey assessed as albumin level in animal at 300 mg/kg/day, po administered immediately after infection followed by 5 ml/kg of 30% suspension of hydrated homogenized monkey biscuit measured 11 days post infection. Type of assay: functional.

Assay [5] has as its system Variola virus. Description: Antiviral activity against 1X10'8 PFU Variola virus Harper infected in cynomolgus monkey assessed as alanine amino transferase level in animal at 300 mg/kg/day, po administered immediately after infection followed by 5 ml/kg of 30% suspension of hydrated homogenized monkey biscuit measured 11 days post infection. Type of assay: functional.
The test system of assay [6] is Variola virus. Description: Antiviral activity against 1X10'8 PFU Variola virus Harper infected in cynomolgus monkey assessed as […] level in animal at 300 mg/kg/day, po administered immediately after infection followed by 5 ml/kg of 30% suspension of hydrated homogenized monkey biscuit measured 11 days post infection. Type of assay: functional.
For assay [7], the system named is Variola virus. As to the kind of experiment: Antiviral activity against 1X10'8 PFU Variola virus Harper infected in cynomolgus monkey assessed as blood urea nitrogen level in animal at 300 mg/kg/day, po administered immediately after infection followed by 5 ml/kg of 30% suspension of hydrated homogenized monkey biscuit measured 11 days post infection. Type of assay: functional.

For assay [8], the system named is Variola virus. As to the kind of experiment: Antiviral activity against 1X10'8 PFU Variola virus Harper infected in cynomolgus monkey assessed as total protein level in animal at 300 mg/kg/day, po administered immediately after infection followed by 5 ml/kg of 30% suspension of hydrated homogenized monkey biscuit measured 11 days post infection. Type of assay: functional.

Assay [9] concerns Variola virus. As to the kind of experiment: Antiviral activity against 1X10'8 PFU Variola virus Harper infected in cynomolgus monkey assessed as percent hematocrit level in animal at 300 mg/kg/day, po administered 1 day post infection followed by 5 ml/kg of 30% suspension of hydrated homogenized monkey biscuit measured 11 days post infection. Type of assay: functional.
For assay [10], the system named is Variola virus. Description: Antiviral activity against 1X10'8 PFU Variola virus Harper infected in cynomolgus monkey assessed as platelet count in animal at 300 mg/kg/day, po administered 1 day post infection followed by 5 ml/kg of 30% suspension of hydrated homogenized monkey biscuit measured 11 days post infection. Type of assay: functional.
Assay [11] concerns Variola virus. Description: Antiviral activity against 1X10'8 PFU Variola virus Harper infected in cynomolgus monkey assessed as white blood cell count in animal at 300 mg/kg/day, po administered 1 day post infection followed by 5 ml/kg of 30% suspension of hydrated homogenized monkey biscuit measured 11 days post infection. Type of assay: functional.
For assay [12], the system named is Variola virus. As to the kind of experiment: Antiviral activity against 1X10'8 PFU Variola virus Harper infected in cynomolgus monkey assessed as albumin level in animal at 300 mg/kg/day, po administered 1 day post infection followed by 5 ml/kg of 30% suspension of hydrated homogenized monkey biscuit measured 11 days post infection. Type of assay: functional.

Assay [13] has as its system Variola virus. Description: Antiviral activity against 1X10'8 PFU Variola virus Harper infected in cynomolgus monkey assessed as alanine amino transferase level in animal at 300 mg/kg/day, po administered 1 day post infection followed by 5 ml/kg of 30% suspension of hydrated homogenized monkey biscuit measured 11 days post infection. Type of assay: functional.
For assay [14], the system named is Variola virus. Description: Antiviral activity against 1X10'8 PFU Variola virus Harper infected in cynomolgus monkey assessed as […] level in animal at 300 mg/kg/day, po administered 1 day post infection followed by 5 ml/kg of 30% suspension of hydrated homogenized monkey biscuit measured 11 days post infection. Type of assay: functional.
Assay [15] deals with Variola virus. As to the kind of experiment: Antiviral activity against 1X10'8 PFU Variola virus Harper infected in cynomolgus monkey assessed as total protein level in animal at 300 mg/kg/day, po administered 1 day post infection followed by 5 ml/kg of 30% suspension of hydrated homogenized monkey biscuit measured 11 days post infection. Type of assay: functional.
Assay [16] concerns Variola virus. As to the kind of experiment: Antiviral activity against 1X10'8 PFU Variola virus Harper infected in cynomolgus monkey assessed as platelet count in animal at 300 mg/kg/day, po administered 1 day post infection followed by 5 ml/kg of 30% suspension of hydrated homogenized monkey biscuit measured 9 days post infection. Type of assay: functional.
Assay [17] deals with Variola virus. As to the kind of experiment: Antiviral activity against 1X10'8 PFU Variola virus Harper infected in cynomolgus monkey assessed as mean corpuscular hemoglobin concentration in animal at 300 mg/kg/day, po administered 1 day post infection followed by 5 ml/kg of 30% suspension of hydrated homogenized monkey biscuit measured 9 days post infection. Type of assay: functional.

For assay [18], the system named is Variola virus. Description: Antiviral activity against 1X10'8 PFU Variola virus Harper infected in cynomolgus monkey assessed as creatinine level in animal at 300 mg/kg/day, po administered 1 day post infection followed by 5 ml/kg of 30% suspension of hydrated homogenized monkey biscuit measured 9 days post infection. Type of assay: functional.
The subject of assay [19] is Variola virus. Description: Antiviral activity against 1X10'8 PFU Variola virus Harper infected in cynomolgus monkey assessed as percent hematocrit level in animal at 300 mg/kg/day, po administered 3 days post infection followed by 5 ml/kg of 30% suspension of hydrated homogenized monkey biscuit measured 9 days post infection. Type of assay: functional.
The subject of assay [20] is Variola virus. Description: Antiviral activity against 1X10'8 PFU Variola virus Harper infected in cynomolgus monkey assessed as white blood cell count in animal at 300 mg/kg/day, po administered 3 days post infection followed by 5 ml/kg of 30% suspension of hydrated homogenized monkey biscuit measured 9 days post infection. Type of assay: functional.
Another assay relates to Cynomolgus monkey. As to the kind of experiment: Immunostimulatory activity in cynomolgus monkey infected with 1X10'8 PFU Variola virus Harper assessed as level of IgG at 300 mg/kg/day, po followed by 5 ml/kg of 30% suspension of hydrated homogenized monkey biscuit measured on day 7 by ELISA. Type of assay: functional, organism-based. The settings on record: Macaca fascicularis.

Assay [21] deals with Monkeypox virus. As to the kind of experiment: Antiviral activity against Monkeypox virus Zaire '79 infected in cynomolgus monkey assessed as survival of monkey at 300 mg/kg/day, po administered 24 hrs post infection followed by 5 ml/kg of 30% suspension of hydrated homogenized monkey biscuit measured after 14 days. Type of assay: functional, organism-based.
In assay [22] the test system is Monkeypox virus. Description: Antiviral activity against Monkeypox virus Zaire '79 infected in cynomolgus monkey assessed as survival of monkey at 300 mg/kg/day, po administered 72 hrs post infection followed by 5 ml/kg of 30% suspension of hydrated homogenized monkey biscuit measured after 14 days. Type of assay: functional, organism-based.
The subject of assay [23] is Monkeypox virus. As to the kind of experiment: Antiviral activity against Monkeypox virus Zaire '79 infected in cynomolgus monkey assessed as log decrease in viral load at 300 mg/kg/day, po administered 72 hrs post infection measured after 14 days. Type of assay: functional.

On to `O=C(NN1C(=O)[C@@H]2[C@@H]3C=C[C@@H]([C@H]4C[C@@H]34)[C@@H]2C1=O)c1ccc(C(F)(F)F)cc1` [TECOVIRIMAT], for which the result with Variola virus [1], in the assay with Cynomolgus monkey, in the assay on Monkeypox virus [21] and with Monkeypox virus [22] was Active. Moreover, the FC in the assay on Variola virus [2] was 3; with Monkeypox virus [23] it was 5. For the same compound, the Activity in the assay with Variola virus [3] was determined as 31.7 g/dL; in the assay on Variola virus [4], 2.47 g/dL; in the assay on Variola virus [5], 49.7 U/L; in the assay on Variola virus [6], 277 U/L; in the assay with Variola virus [7], 19 mg/dL; with Variola virus [8], 6.37 g/dL. Further, the Activity in the assay with Variola virus [9] stood at 49.6%; with Variola virus [10], 341 ×10³ /uL; in the assay on Variola virus [11] it was 7.5 ×10³ /uL; with Variola virus [12] it was 2.9 g/dL; in the assay on Variola virus [13], 60.3 U/L; with Variola virus [14], 141 U/L. Besides, the Activity with Variola virus [15] came out at 6.43 g/dL; with Variola virus [16], 350 ×10³ /uL; in the assay on Variola virus [17], 30.9 g/dL; with Variola virus [18], 0.9 mg/dL; in the assay on Variola virus [19], 35.9%; in the assay with Variola virus [20], 12.3 ×10³ /uL.
